From patent US7256198B2, “Pyrimidoindolones and methods for using same” (Wyeth, priority 2004, dated 2007)
Counter-ions that a name gives are not always drawn.

Experiments:
recombinant caspase 3 = molecular target: T1, recombinant caspase 3 (Homo sapiens, UniProt P42574); assay: Caspase 3 Inhibition Assay (Ac-DEVD-AFC fluorogenic substrate cleavage); format: biochemical; conditions: pH 7.2, 23° C.; for IC50: recombinant caspase 3 0.25 nM, Ac-DEVD-AFC 25 μM; for inhibition at 50 µM: @ 50 μM compound, recombinant caspase 3, Ac-DEVD-AFC 25 μM, read-out: percent inhibition at the highest compound concentration
T1 construct: His tag (C); made in house; host or cells: E. coli
T1 sequence (P42574 29-175 limits assumed): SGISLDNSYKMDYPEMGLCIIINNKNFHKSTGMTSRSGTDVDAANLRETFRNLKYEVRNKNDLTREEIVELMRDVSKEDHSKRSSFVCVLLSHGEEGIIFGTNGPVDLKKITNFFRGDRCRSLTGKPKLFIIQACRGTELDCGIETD
T1 sequence (P42574 176-277 limits assumed): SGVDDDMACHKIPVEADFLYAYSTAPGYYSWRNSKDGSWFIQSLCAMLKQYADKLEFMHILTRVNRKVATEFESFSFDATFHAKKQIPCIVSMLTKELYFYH
Method: Caspase 3 was expressed intracellularly in E. coli with a c-terminal His tag. Fermentation was performed at 25° C. in a B. Braun Biotech Biostat C 10 liter bioreactor vessel. The culture was collected in IL bottles and centrifuged in Komspin KA-7.1000 rotors at approximately 8000 RCF (Relative Centrifugal Force). The cell pellets were re-suspended in 20 mM Tris pH 8.0, 500 mM NaCl, and 5 mM imidazole. The cell suspension was disrupted by passing 5 times through a microfluidizer Model 110Y (Microfluidics Corp, Newton, Mass). After centrifugation (13 kg, 30 min at 4 C), the supernatant was applied to a column of Nickle-NTA agarose. The Caspase 3 was eluted with a gradient of 5 mM to 150 mM imidazole in the above buffer. Fractions containing Caspase 3 were pooled and concentrated with a Millipore Ultrafree filtration device. The concentrated Caspase 3 solution was loaded unto a TSK gel G3000sw column (Tosoh Bioseph LLC), equilibrated with a buffer of 20 mM PIPES pH 7.2, 100 mM NaCl, 1 mM EDTA & 5 mM Cysteine. Fractions containing Caspase 3 were pooled and concentrated. Sometimes CHAPS was added to 0.1% and sucrose to 10% into the protein sample.
Caspase 3 was assayed at 23° C. (room temp) in 96-well plates using the internally quenched tetrapeptide substrate N-acetyl-aspartyl-glutamyl-valyl-aspartate-7-amino-4-trifluoromethyl coumarin (Ac-DEVD-AFC purchased from Biomol). The assays are conducted at pH 7.2 in a buffered system containing 20 mM PIPES, 100 mM NaCl, 1 mM EDTA, 0.1% CHAPS, 10% sucrose and 5 mM L-cysteine. […] A steady state rate of substrate cleavage is obtained for analysis.
The progress curves generated were fitted by computer to equation 1 to generate an IC50 value. Equation 1: y=Bmax*(1−(x^n/(K^n+x^n))), where Bmax is rate in the absence of inhibitor.

**Q.** For `COC[C@@H]1CCCN1S(=O)(=O)c1ccc2c(c1)C(=O)C1=NCCCN12` [Example 1, 8-{[(2S)-2-(Methoxymethyl)pyrrolidin-1-yl]sulfonyl}-3,4-dihydropyrimido[1,2-a]indol-10(2H)-one], which IC50 (recombinant caspase 3) is on record?
**A.** 27 nM

**Q.** And the melting point?
**A.** 171 to 172 °C

**Q.** With `COc1ccc2c(c1)C(=O)C1=NCCCN12` (hydrate or solvate) [Example 11, 8-Methoxy-3,4-dihydropyrimido[1,2-a]indol-10(2H)-one] as the molecule, how does the melting point read?
**A.** 152 °C

**Q.** Which results are given for `CC1CCN=C2C(=O)c3cc(Br)ccc3N21` (stereo not shown) [Example 13, 8-Bromo-4-methyl-3,4-dihydropyrimido[1,2-a]indol-10(2H)-one]?
**A.** IC50 (recombinant caspase 3): 50000 nM; melting point: 127 to 129 °C

**Q.** With `COC[C@H]1CCCN1S(=O)(=O)c1ccc2c(c1)C(=O)C1=NCC(C)(C)CN12` as the molecule, how does the melting point read?
**A.** 161 to 164 °C

**Q.** With `CC1(C)CN=C2C(=O)c3cc(Cl)ccc3N2C1` (hydrate or solvate) [Example 14, 8′-Chloro-3′,3′-dimethyl-3′,4′-dihydropyrimido[1,2-a]indol-10(2H)-one] as the molecule, how does the melting point read?
**A.** 153 to 154 °C

**Q.** With `Nc1cc2c(cc1Cl)N1CCCN=C1C2=O` [Example 16, 8-Amino-7-chloro-3,4-dihydropyrimido[1,2-a]indol-10(2H)-one] as the molecule, how does the melting point read?
**A.** > 270 °C

**Q.** With `CC1(C)CN=C2C(=O)c3cc(S(=O)(=O)N4CCCC4)ccc3N2C1` [Example 12, 3,3-Dimethyl-8-(pyrrolidin-1-ylsulfonyl)-3,4-dihydropyrimido[1,2-a]indol-10(2H)-one] as the molecule, how does the IC50 (recombinant caspase 3) read?
**A.** 9 nM

**Q.** And the melting point?
**A.** 200 to 201 °C

**Q.** Which melting point does the source give for `O=C1C2=NCCCN2c2cc(Cl)c([N+](=O)[O-])cc21` (hydrate or solvate) [Example 15, 7-Chloro-8-nitro-3,4-dihydropyrimido[1,2-a]indol-10(2H)-one] here?
**A.** 152 to 165 °C

**Q.** With `CNS(=O)(=O)c1ccc2c(c1)C(=O)C1=NCCCN12` [Example 7, N-Methyl-10-oxo-2,3,4,10-tetrahydropyrimido[1,2-a]indole-8-sulfonamide] as the molecule, how does the IC50 (recombinant caspase 3) read?
**A.** 1270 nM

**Q.** And the melting point?
**A.** 170 to 183 °C (dec.)

**Q.** Which melting point does the source give for `CC1(C)CN=C2C(=O)c3cc(C#N)ccc3N2C1` (hydrate or solvate) [Example 20, 3,3-Dimethyl-10-oxo-2,3,4,10-tetrahydropyrimido[1,2-a]indole-8-carbonitrile] here?
**A.** 178 to 184 °C

**Q.** Which melting point does the source give for `O=C(Nc1ccc2c(c1)C(=O)C1=NCCCN12)c1ccccc1` (as salt: trifluoroacetic acid salt) [Example 17, N-(10-Oxo-2,3,4,10-tetrahydropyrimido[1,2-a]indol-8-yl)benzamide trifluoroacetic acid salt] here?
**A.** 155 to 168 °C

**Q.** With `O=C1C2=NCCCN2c2ccc(F)cc21` [Example 18, 8-Fluoro-3,4-dihydropyrimido[1,2-a]indol-10(2H)-one] as the molecule, how does the inhibition at 50 µM (recombinant caspase 3) read?
**A.** 26%

**Q.** And the melting point?
**A.** 150 to 152 °C

**Q.** What does the source list for `CC1(C)CN=C2C(=O)c3cc(S(=O)(=O)N4CCc5ccccc54)ccc3N2C1` [Example 32, 8-(2,3-Dihydro-1H-indol-1-ylsulfonyl)-3,3-dimethyl-3,4-dihydropyrimido[1,2-a}indol-10(2H)-one]?
**A.** IC50 (recombinant caspase 3): 16 nM; melting point: 169.8 to 170.8 °C

**Q.** Which results are given for `COC[C@@H]1Cc2ccccc2N1S(=O)(=O)c1ccc2c(c1)C(=O)C1=NCC(C)(C)CN12` [Example 33, 8-{[(2S)-2-(Methoxymethyl)-2,3-dihydro-1H-indol-1-yl]sulfonyl}-3,3-dimethyl-3,4-dihydropyrimido[1,2-a]indol-10(2H)-one]?
**A.** IC50 (recombinant caspase 3): 555 nM; melting point: 173.4 to 175 °C

**Q.** For `CC1CCN2C(=N1)C(=O)c1cc(S(=O)(=O)N3CCCC3)ccc12` (stereo not shown) [Example 87], which IC50 (recombinant caspase 3) is on record?
**A.** 15 nM

**Q.** And the melting point?
**A.** 152.5 to 153 °C

**Q.** For `O=C1C2=NCCCN2c2ccc(S(=O)(=O)N3CCC[C@H]3COc3ccccc3)cc21` [Example 3], which melting point is on record?
**A.** 159 to 160 °C

**Q.** For `CC1(C)CN=C2C(=O)c3cc(S(=O)(=O)N4CCC[C@H]4COc4ccccc4)ccc3N2C1`, which melting point is on record?
**A.** 73 to 88 °C (dec.)

**Q.** For `Cc1ccc2c(c1)C(=O)C1=NCCCN12` (hydrate or solvate) [Example 10, 8-Methyl-3,4-dihydropyrimido[1,2-a]indol-10(2H)-one], which melting point is on record?
**A.** 163 to 164 °C

**Q.** With `O=C1C2=NCCCN2c2ccc(Br)cc21` [Example 9, 8-Bromo-3,4-dihydropyrimido[1,2-a]indol-10(2H)-one] as the molecule, how does the inhibition at 50 µM (recombinant caspase 3) read?
**A.** 72%

**Q.** What about the melting point of the same molecule?
**A.** 166 to 168 °C (dec.)

**Q.** For `O=C1C2=NCC3(CCCC3)CN2c2ccc(S(=O)(=O)N3CCC[C@H]3CN3CCOCC3)cc21` [Example 83, 8′-{[(2S)-2-(morpholin-4-ylmethyl)pyrrolidin-1-yl]sulfonyl}spiro[cyclopentane-1,3′-pyrimido[1,2-a]indol]-10′(2′H)-one], which IC50 (recombinant caspase 3) is on record?
**A.** 14 nM

**Q.** What about the melting point of the same molecule?
**A.** 162.9 to 163.6 °C

**Q.** With `CC1(C)CN=C2C(=O)c3cc(S(=O)(=O)N4CCC[C@H]4CO)ccc3N2C1` [Example 8, 8-{[(2S)-2-(Hydroxymethyl)pyrrolidin-1-yl]sulfonyl}-3,3-dimethyl-3,4-dihydropyrimido[1,2-a]indol-10(2H)-one] as the molecule, how does the IC50 (recombinant caspase 3) read?
**A.** 25 nM

**Q.** And the melting point?
**A.** 91 to 96 °C (dec.)

**Q.** Which melting point does the source give for `COC[C@@H]1CCCN1S(=O)(=O)c1ccc2c(c1)C(=O)C1=NCC(C)(C)CN12` here?
**A.** 163 to 165 °C

**Q.** Which results are given for `O=C1C2=NCCCN2c2ccc(O)cc21` [Example 19, 8-Hydroxy-3,4-dihydropyrimido[1,2-a]indol-10(2H)-one]?
**A.** inhibition at 50 µM (recombinant caspase 3): 2%; melting point: 265 °C (dec.)

**Q.** For `COC[C@@H]1CCCN1S(=O)(=O)c1cc2c(cc1Cl)N1CCCN=C1C2=O` (hydrate or solvate) [Example 5, 7-Chloro-8-{[(2S)-2-(methoxymethyl)pyrrolidin-1-yl-]sulfonyl}-3,4-dihydropyrimido[1,2-a]indol-10(2H)-one], which melting point is on record?
**A.** 127 to 130 °C

**Q.** With `COC[C@@H]1CCCN1S(=O)(=O)c1ccc2c(c1)C(=O)C1=NCC3(CCCC3)CN12` as the molecule, how does the melting point read?
**A.** 171.2 to 171.9 °C

**Q.** Which inhibition at 50 µM (recombinant caspase 3) does the source give for `CC(=O)N1CCN(C(=O)c2ccc3c(c2)C(=O)C2=NCC(C)(C)CN23)CC1` [Example 82, 8-[(4-Acetylpiperazin-1-yl)carbonyl]-3,3-dimethyl-3,4-dihydropyrimido[1,2-a]indol-10(2H)-one] here?
**A.** 28%

**Q.** For `Cc1ccc(S(=O)(=O)Nc2ccc3c(c2)C(=O)C2=NCC(C)(C)CN23)cc1` [Example 51, N-(3,3-Dimethyl-10-oxo-2,3,4,10-tetrahydropyrimido[1,2-a]indol-8-yl)-4-methylbenzenesulfonamide], which IC50 (recombinant caspase 3) is on record?
**A.** 714 nM

**Q.** With `CC1(C)CN=C2C(=O)c3cc(NS(=O)(=O)c4cc(C(F)(F)F)cc(C(F)(F)F)c4)ccc3N2C1` [Example 62, N-(3,3-Dimethyl-10-oxo-2,3,4,10-tetrahydropyrimido[1,2-a]indol-8-yl)-3,5-bis(trifluoromethyl)benzenesulfonamide] as the molecule, how does the IC50 (recombinant caspase 3) read?
**A.** 3140 nM
